Reference: publication PMC12164026, “Plant-derived nodule-specific cysteine-rich peptides as potent antifungal agents against Cryptococcus neoformans: mechanisms of action, chimeric peptide enhancement, and immunomodulatory effects” (Current Research in Microbial Sciences, 2025)
Values after ≈ are worked out from the molar mass of the structure shown. Where two headings read alike, the source gives them in different places. Bridge positions count the residues as written; N and C are the ends. Peptide text beside a SMILES is read from it.

How the values were obtained:
[1] = tested on: Cryptococcus neoformans IFM 5844; test: microbe, parasite or virus in culture; type: cell-based; settings: five-fold diluted YNB + 1 % dextrose, 5 × 10^4 cells/mL, 30 °C, 72 h, OD 620 nm, ≥ 90 % growth inhibition, tested 25 to 0.39 µM, three biological replicates
Procedure: (§1) The susceptibility of Cryptococcus neoformans IFM 5844 to 20 peptides (Supplementary Table 1) was tested in a widely used synthetic medium to cultivate yeasts (YNB) and in a serum-free medium what is able to support the proliferation of macrophage cells (X-VIVO).
YNB medium: five-fold diluted Difco Yeast Nitrogen Base w/o Amino Acids medium (Becton, Dickinson and Company, Sparks, MD, USA) supplemented with 1 % dextrose
(§2) The minimal inhibitory concentration (MIC) of each peptide was determined by using micro-dilution assay. The C. neoformans suspensions were adjusted to 5 × 10^4 cells/mL concentration in either YNB or X-VIVO medium. A 96-well microtiter plate was prepared by adding 95 µL suspension per well followed by 5 µL of serially two-fold diluted peptide solutions achieving a final volume of 100 µl. The concentration of the peptides ranged from 25 to 0.39 µM. For control samples, 5 µL pure medium was added to the yeast cell suspension instead of peptides. Plates were incubated at 37 °C for 48 h in X-VIVO medium and 30 °C for 72 h in YNB medium. After incubation, optical density was measured at 620 nm using a SPECTROstar Nano plate reader (BMG LabTech, Offenburg, Germany). […] The experiments were carried out in three independent biological replicates.

[2] = tested on: Cryptococcus neoformans IFM 5844; type: cell-based; settings: half-diluted X-VIVO 15 medium, 37 °C, 48 h, OD 620 nm, ≥ 90 % growth inhibition, tested 25 to 0.39 µM, three biological replicates
Procedure: as §1
X-VIVO medium: half-diluted X-VIVO™ 15 cell culture medium (Lonza, Verviers, Belgium).
as §2

[3] = tested on: Cryptococcus neoformans IFM 5844; test: Minimal fungicidal concentration (MFC) determination, spotting on YPD; type: cell-based; settings: cultures from MIC assays diluted and spotted onto solid YPD, 30 °C, 48 h
Procedure: Minimal fungicidal concentration (MFC) determination. To assess fungicidal activity, both control and peptide-treated cultures from the MIC assays were diluted 10-fold and 100-fold in sterile distilled water. Five µL from each dilution was then spotted onto solid YPD medium (1 % pepton, 1 % dextrose, 0.5 % yeast extract, 2 % agar). The plates were incubated at 30 °C for 48 h and fungal growth was evaluated. MFC was defined as the lowest peptide concentration at which no visible fungal growth was detected, indicating complete fungicidal activity.

[4] = tested on: C. neoformans IFM 5844 cells; test: Cell membrane permeability, calcein-AM assay by flow cytometry; type: cell-based, Cryptococcus neoformans; settings: half-MIC, 2 h, 30 °C, YNB
Procedure: The effect of the peptides on the cell membrane permeability of C. neoformans IFM 5844 cells was checked by flow cytometry with calcein-AM assay ([Olson, et al., 2001]). Calcein-acetoxymethyl ester (calcein-AM) is a membrane-permeable live-cell dye that, upon entering the cell, is cleaved by intracellular esterases, converting it into calcein, a membrane-impermeable fluorescent marker. The assay was carried out by suspending a total of 1 × 10^7 cells in 100 µl YNB medium containing 20 µg/mL indomethacin (Sigma-Aldrich, Saint Louis, MO, USA) and incubating them at 30 °C for 30 min to inhibit calcein transporters. Following this pre-treatment, membrane-permeable calcein-AM (Invitrogen, Waltham, MA, USA) was added to a final concentration of 5 µg/mL, and the samples were incubated at 30 °C for 3 h allowing the calcein-AM to enter the cells where esterases converted it to fluorescent calcein. After incubation, cells were washed twice with sterile distilled water and subsequently exposed to peptides at half-MIC concentrations in YNB medium for 2 h at 30 °C. Following peptide treatment, cells were washed twice with sterile distilled water, and fluorescence intensity was measured using a FlowSight® flow cytometer (Amnis-EMD Millipore) equipped with a 488-nm excitation laser. Intact cells stained with calcein-AM but not exposed to peptides served as controls. To ensure statistical reliability, four independent experiments were conducted, and fluorescence intensity was recorded from 10,000 cells per sample during each experiment.

[5] = Cryptococcus neoformans, IFM5844, read-out: MIC

Compound | MIC [1] | MIC ([1]; read-out: MIC) [µM] | fungistatic or fungicide mode of action [3] | also measured
FWGQNRNIMKHRGQ [NCR335N16–29, 14 amino acid-long N-terminal fragment of NCR335] | ineffective | – | – | –
CKTNKDCP [NCR335C9–16, short derivative of NCR335 C-terminal region] | lacked inhibitory effect | – | – | –
CC[C@H](C)[C@H](NC(=O)[C@H](CCCCN)NC(=O)[C@H](CCCCN)NC(=O)[C@H](C)NC(=O)[C@H](CC(C)C)NC(=O)[C@H](C)NC(=O)[C@H](C)NC(=O)[C@H](CC(C)C)NC(=O)[C@H](C)NC(=O)[C@@H](N)CCCCN)C(=O)N[C@@H](CC(C)C)C(=O)N[C@@H](CCC(N)=O)C(=O)N[C@@H](CCC(N)=O)C(=O)N[C@@H](CS)C(=O)N[C@@H](CCCNC(=N)N)C(=O)N[C@@H](CCCNC(=N)N)C(=O)N1CCC[C@H]1C(=O)N[C@@H](CC(C)C)C(=O)N[C@@H](Cc1ccc(O)cc1)C(=O)N[C@@H](CS)C(=O)N[C@@H](CCCNC(=N)N)C(=O)N[C@@H](CCCNC(=N)N)C(=O)N[C@@H](CCCNC(=N)N)C(N)=O [X2-NCR247C] (H-KALAALAKKILQQCRRPLYCRRR-NH2; N-terminus assumed) | – | 0.78 | fungicidal effect | MIC [2]: 3.12 µM (≈ 8.6 µg/mL); calcein leakage / membrane permeability disruption [4]: highest calcein leakage
CC(C)C[C@H](NC(=O)[C@@H]1CCCN1C(=O)[C@H](CCCNC(=N)N)NC(=O)[C@H](CCCNC(=N)N)NC(=O)[C@H](CS)NC(=O)[C@H](CCC(N)=O)NC(=O)[C@@H](N)CCC(N)=O)C(=O)N[C@@H](Cc1ccc(O)cc1)C(=O)N[C@@H](CS)C(=O)N[C@@H](CCCNC(=N)N)C(=O)N[C@@H](CCCNC(=N)N)C(=O)N[C@@H](CCCNC(=N)N)C(N)=O [NCR247C] (H-QQCRRPLYCRRR-NH2; N-terminus assumed) | – | 6.25 | fungicidal effect | calcein leakage / membrane permeability disruption [4]: highest calcein leakage
C[C@@H]1[C@H](O)[C@@H](C)/C=C/C=C/C=C/C=C/C=C/C=C/C=C/[C@H](O[C@@H]2O[C@H](C)[C@@H](O)[C@H](N)[C@@H]2O)C[C@@H]2O[C@](O)(C[C@@H](O)C[C@@H](O)[C@H](O)CC[C@@H](O)C[C@@H](O)CC(=O)O[C@H]1C)C[C@H](O)[C@H]2C(=O)O [amphotericin B, reference compound] | – | – | – | MIC [1, 5]: 1.56 µM
HFSLILSD [NCR335C1–8, short derivative of NCR335 C-terminal region] | lacked inhibitory effect | – | – | –
CC[C@H](C)[C@H](NC(=O)[C@@H]1CCCN1C(=O)[C@@H](NC(=O)[C@H](CS)NC(=O)[C@H](Cc1ccc(O)cc1)NC(=O)[C@H](CO)NC(=O)[C@H](CCCCN)NC(=O)[C@H](CCCNC(=N)N)NC(=O)[C@H](CS)NC(=O)[C@H](CCCNC(=N)N)NC(=O)[C@@H](NC(=O)[C@H](CC(N)=O)NC(=O)[C@H](C)NC(=O)[C@H](CCCNC(=N)N)NC(=O)[C@H](CCCNC(=N)N)NC(=O)[C@H](CC(C)C)NC(=O)[C@H](CCCCN)NC(=O)[C@@H]1CCCN1C(=O)[C@H](CS)NC(=O)[C@H](CC(=O)O)NC(=O)[C@H](CCCCN)NC(=O)[C@H](CC(N)=O)NC(=O)[C@@H](NC(=O)[C@H](CCCCN)NC(=O)[C@H](CS)NC(=O)[C@H](CC(=O)O)NC(=O)[C@H](CO)NC(=O)[C@H](CC(C)C)NC(=O)[C@@H](NC(=O)[C@H](CC(C)C)NC(=O)[C@H](CO)NC(=O)[C@H](Cc1ccccc1)NC(=O)[C@@H](N)Cc1c[nH]cn1)[C@@H](C)CC)[C@@H](C)O)C(C)C)C(C)C)C(N)=O [NCR335C1–33] (H-HFSLILSDCKTNKDCPKLRRANVRCRKSYCVPI-NH2; N-terminus assumed) | – | – | fungicidal effect | –
CC[C@H](C)[C@H](NC(=O)[C@H](CCCCN)NC(=O)[C@H](Cc1ccccc1)NC(=O)[C@H](CC(C)C)NC(=O)[C@@H]1CCCN1C(=O)[C@H](CCCCN)NC(=O)[C@H](CCCCN)NC(=O)[C@H](CO)NC(=O)[C@@H](N)CCCCN)C(=O)N[C@@H](C)C(=O)N[C@@H](CCCCN)C(=O)N[C@@H](CS)C(=O)N[C@H](C(=O)N[C@@H](CCC(=O)O)C(=O)N[C@@H](CC(N)=O)C(=O)N[C@H](C(=O)N[C@@H](CS)C(=O)N[C@H](C(=O)N[C@@H](CC(C)C)C(=O)N[C@@H](C)C(=O)N[C@@H](Cc1ccc(O)cc1)C(=O)N[C@@H](CCCCN)C(N)=O)C(C)C)C(C)C)C(C)C [NCR169C17–38W10,20/A] (H-KSKKPLFKIAKCVENVCVLAYK-NH2; N-terminus assumed) | – | 6.25 | fungicidal effect | calcein leakage / membrane permeability disruption [4]: highest calcein leakage
RLNTTFRPLNFKMLRFWGQNRNIMKHRGQKVHFSLILSDCKTNKDCPKLRRANVRCRKSYCVPI [NCR335, 64-amino-acid-long cationic M. truncatula NCR peptide] | – | 3.12 | – | –
OC(Cn1cncn1)(Cn1cncn1)c1ccc(F)cc1F [Fluconazole, fluconazole, reference compound] | – | – | – | MIC [1, 5]: 12.5 µM
CC[C@H](C)[C@H](NC(=O)[C@H](CCCCN)NC(=O)[C@H](Cc1ccccc1)NC(=O)[C@H](CC(C)C)NC(=O)[C@@H]1CCCN1C(=O)[C@H](CCCCN)NC(=O)[C@H](CCCCN)NC(=O)[C@H](CO)NC(=O)[C@@H](N)CCCCN)C(=O)N[C@@H](Cc1c[nH]c2ccccc12)C(=O)N[C@@H](CCCCN)C(=O)N[C@H]1CSSC[C@@H](C(=O)N[C@H](C(=O)N[C@@H](CC(C)C)C(=O)N[C@@H](Cc2c[nH]c3ccccc23)C(=O)N[C@@H](Cc2ccc(O)cc2)C(=O)N[C@@H](CCCCN)C(N)=O)C(C)C)NC(=O)[C@H](C(C)C)NC(=O)[C@H](CC(N)=O)NC(=O)[C@H](CCC(=O)O)NC(=O)[C@H](C(C)C)NC1=O [NCR169C17–38ox] (H-KSKKPLFKIWKCVENVCVLWYK-NH2; disulfide 12-17; N-terminus assumed) | – | 3.12 | fungicidal effect | –
HFSLILSDCKTNKDCP [NCR335C1–16, short derivative of NCR335 C-terminal region] | lacked inhibitory effect | – | – | –
KLRRANVRCRK [NCR335C17–27, further truncation of NCR335C17–33] | lacked inhibitory effect | – | – | –
CC[C@H](C)[C@H](NC(=O)[C@H](CCCCN)NC(=O)[C@H](Cc1ccccc1)NC(=O)[C@H](CC(C)C)NC(=O)[C@@H]1CCCN1C(=O)[C@H](CCCCN)NC(=O)[C@H](CCCCN)NC(=O)[C@H](CO)NC(=O)[C@@H](N)CCCCN)C(=O)N[C@@H](Cc1c[nH]c2ccccc12)C(=O)N[C@@H](CCCCN)C(=O)N[C@@H](CS)C(=O)N[C@H](C(=O)N[C@@H](CCC(=O)O)C(=O)N[C@@H](CC(N)=O)C(=O)N[C@H](C(=O)N[C@@H](CS)C(=O)N[C@H](C(=O)N[C@@H](CC(C)C)C(=O)N[C@@H](Cc1c[nH]c2ccccc12)C(=O)N[C@@H](Cc1ccc(O)cc1)C(=O)N[C@@H](CCCCN)C(N)=O)C(C)C)C(C)C)C(C)C [NCR169C17–38] (H-KSKKPLFKIWKCVENVCVLWYK-NH2; N-terminus assumed) | – | 3.12 | fungicidal effect | calcein leakage / membrane permeability disruption [4]: highest calcein leakage
